Test results taken from US10653688B2, “6-(6-membered heteroaryl and aryl)isoquinolin-3-yl carboxamides and preparation and use thereof” (Samumed, LLC, priority 2017, dated 2020).
Where two headings read alike, the source gives them in different places.

What was measured:
[1] = molecular target: recombinant DYRK1A kinase (Homo sapiens (Human), UniProt Q13627); experiment: DYRK1A kinase assay (Ser/Thr 18 peptide Z-lyte, FRET)
Procedure: Each compound was dissolved in DMSO as a 10 mM stock and used to prepare compound source plates.
This is a non-radioactive assay using fluorescence resonance energy transfer (FRET) between coumarin and fluorescein to detect kinase activity which is represented as a ratio of coumarin emission/fluorescein emission.
The mixture was allowed to incubate with the representative compounds for one hour at room temperature. All reactions were performed in duplicate. Unphosphorylated (“0% Control”) and phosphorylated (“100% control”) forms of Ser/Thr 18 served as control reactions. Additionally, an 11-point dose-response curve of Staurosporine (luM top) was run to serve as a positive compound control.
After incubation, Development Reagent A was diluted in Development Buffer then added to the reaction and allowed to further incubate for one hour at room temperature.
Dose-response curves were generated and inhibitory concentration (IC50) values were calculated using non-linear regression curve fit in the Dotmatics' Studies Software (Bishops Stortford, UK).

[2] = molecular target: recombinant GSK3β kinase (Homo sapiens (Human), UniProt P49841); experiment: GSK3β kinase assay (Ser/Thr 09 peptide Z-lyte, FRET); format: biochemical;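 further: FRET read-out as coumarin over fluorescein emission ratio, compounds incubated one hour at room temperature, IC50 from dose-response curve fit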
[3] = test system: Wnt activity (SW480 colon carcinoma cells stably expressing the Sp5-Luc reporter gene); experiment: Wnt activity screening assay (Sp5-Luc reporter gene assay); format: cell-based, human; conditions: Homo sapiens; for EC50: 36 to 48 hours; for inhibition at 10 µM: read-out: percent inhibition at 10 μM (given for EC50 >10 μM), 10 μM
Outline: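 SW480 colon carcinoma cells stably carrying a lentiviral luciferase reporter driven by an Sp5 promoter with eight TCF/LEF sites, plated at 4,000 cells/well in DMEM with 1% FBS. Compound exposure for 36–48 h at 37 °C, then luminescence read. Signals normalized to DMSO; EC50 from four-parameter nonlinear fit.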

[4] = test system: SW480 colon carcinoma cells; experiment: Cell viability assay (CellTiter-Glo); format: cell-based, human; conditions: Homo sapiens; for EC50: 96 h, four days, CellTiter-Glo; for inhibition at 10 µM: read-out: percent inhibition at 10 μM (given for EC50 >10 μM), 10 μM
[5] = test system: LL29 cells (primary human fibroblasts derived from IPF patients), α-smooth muscle actin; experiment: Inhibition of fibrotic process: TGF-β1-treated primary human fibroblasts, αSMA staining; format: cell-based; conditions: Homo sapiens, Fibroblast; for EC50: 96 h, TGF-β1 20 ng/mL, 4 days, % cells positive for αSMA; for inhibition at 10 µM: read-out: percent inhibition at 10 μM (given for EC50 >10 μM), TGF-β1, αSMA, 10 μM;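 on all read-outs here: controls were TGF-β1-stimulated wells with DMSO vehicle as the positive reference and cells given DMSO alone as the negative reference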
Procedure: Representative compounds were screened using primary human fibroblasts (derived from IPF patients) treated with TGF-β1 to determine their ability to inhibit the fibrotic process.
Human Fibroblast Cell Culture:
Each compound was dissolved in DMSO as a 10 mM stock and used to prepare compound source plates. […] LL29 cells were plated at 1,500 cells/well in 70 μL/well F12 medium supplemented with 1% Fetal Bovine Serum. […] Wells treated with TGF-β1 and containing DMSO were used as positive control, and cells with only DMSO were negative control. Cells were incubated at 37° C. and 5% CO2 for 4 days. Following incubation for 4 days, SYTOX green nucleic acid stain (Life Technologies [Thermo Fisher Scientific]) was added to the wells at a final concentration of 1 μM and incubated at room temperature for 30 min. Cells were then fixed using 4% formaldehyde (Electron Microscopy Sciences), washed 3 times with PBS followed by blocking and permeabilization using 3% Bovine Serum Albumin (BSA; Sigma) and 0.3% Triton X-100 (Sigma) in PBS.

[6] = test system: IL-6 in human peripheral blood mononuclear cells (huPBMCs); experiment: IL-6 inhibition in LPS-stimulated human peripheral blood mononuclear cells (HTRF); format: cell-based; conditions: Homo sapiens, PBMC; for EC50: LPS 50 ng/mL, 22 hours, IL-6 HTRF; for inhibition at 10 µM: read-out: percent inhibition at 10 μM (given for EC50 >10 μM), LPS, IL-6, 10 μM
Outline: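 Fresh normal human PBMCs at 1×10e6 cells/mL in RPMI with 1% FBS received compound, then 50 ng/mL E. coli 0111:B4 LPS 2 h later, and were incubated a further 22 h at 37° C. IL-6 read by HTRF (665/620 nm ratio), normalized to DMSO; EC50 from 4-parameter fit.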

[7] = DYRK1A kinase, head says EC50, method says IC50, ATP 30 μM
[8] = GSK3β kinase, head says EC50, method says IC50, ATP 46 μM

Chain of recombinant GSK3β kinase (P49841 whole entry): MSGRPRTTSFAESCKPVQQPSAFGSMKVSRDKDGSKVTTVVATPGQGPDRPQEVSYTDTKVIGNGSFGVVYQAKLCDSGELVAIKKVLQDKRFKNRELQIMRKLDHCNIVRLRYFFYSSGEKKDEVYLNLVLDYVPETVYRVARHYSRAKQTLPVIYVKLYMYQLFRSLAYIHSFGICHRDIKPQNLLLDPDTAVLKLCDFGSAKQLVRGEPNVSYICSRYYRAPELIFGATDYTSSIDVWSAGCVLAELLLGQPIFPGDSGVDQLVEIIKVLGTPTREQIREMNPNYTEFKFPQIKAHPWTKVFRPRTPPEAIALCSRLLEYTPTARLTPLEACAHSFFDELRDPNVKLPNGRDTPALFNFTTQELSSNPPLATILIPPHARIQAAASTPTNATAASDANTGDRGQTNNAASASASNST

| Compound | EC50 [1, 7] [µM] | EC50 [2, 8] [µM] | EC50 [3] [µM] | EC50 [4] [µM] | EC50 [5] [µM] | inhibition at 10 µM [5] [%] | EC50 [6] [µM] | inhibition at 10 µM [6] [%] | inhibition at 10 µM [3] [%] | inhibition at 10 µM [4] [%] | EC50 [1] [µM] | EC50 [2] [µM] |
| --- | --- | --- | --- | --- | --- | --- | --- | --- | --- | --- | --- | --- |
| O=C(Nc1cc2cc(-c3cncc(OC4CNC4)n3)ccc2cn1)c1ccc(F)cc1 [Compound 125, N-(6-(6-(Azetidin-3-yloxy)pyrazin-2-yl)isoquinolin-3-yl)-4-fluorobenzamide] | 0.005 | > 10 | 7.27 | 7.64 | > 10 | 43.6 | > 10 | 4.5 |  |  |  |  |
| CN1CCC(n2cc(C(=O)Nc3cc4cc(-c5cnc6[nH]ccc6c5)ccc4cn3)cn2)CC1 [Compound 126, N-(6-(1H-Pyrrolo[2,3-b]pyridin-5-yl)isoquinolin-3-yl)-1-(1-methylpiperidin-4-yl)-1H-pyrazole-4-carboxamide] | 0.022 | > 10 | 0.098 | 0.768 | 1.45 |  | 2.72 |  |  |  |  |  |
| CN1CCC(n2cc(C(=O)Nc3cc4cc(-c5cnc6cc[nH]c6c5)ccc4cn3)cn2)CC1 [Compound 127, N-(6-(1H-Pyrrolo[3,2-b]pyridin-6-yl)isoquinolin-3-yl)-1-(1-methylpiperidin-4-yl)-1H-pyrazole-4-carboxamide] | 0.005 | > 10 | 0.027 | 0.074 | 0.272 |  | 1.56 |  |  |  |  |  |
| CN1CCC(n2cc(C(=O)Nc3cc4cc(-c5cncc6[nH]ccc56)ccc4cn3)cn2)CC1 [Compound 128, N-(6-(1H-Pyrrolo[2,3-c]pyridin-4-yl)isoquinolin-3-yl)-1-(1-methylpiperidin-4-yl)-1H-pyrazole-4-carboxamide] | 0.004 | 9.07 | 0.013 | 0.031 | 0.102 |  | 0.678 |  |  |  |  |  |
| CN1CCN(c2cc(C(=O)Nc3cc4cc(-c5cnc6[nH]ccc6c5)ccc4cn3)ccn2)CC1 [Compound 129, N-(6-(1H-Pyrrolo[2,3-b]pyridin-5-yl)isoquinolin-3-yl)-2-(4-methylpiperazin-1-yl)isonicotinamide] | 0.018 | > 10 | 1.37 | 1.17 | 0.699 |  | 3.36 |  |  |  |  |  |
| CN1CCN(c2cc(C(=O)Nc3cc4cc(-c5cnc6cc[nH]c6c5)ccc4cn3)ccn2)CC1 [Compound 130, N-(6-(1H-Pyrrolo[3,2-b]pyridin-6-yl)isoquinolin-3-yl)-2-(4-methylpiperazin-1-yl)isonicotinamide] | 0.004 | > 10 | 0.378 | 0.501 | 0.941 |  | 3.93 |  |  |  |  |  |
| CN1CCN(c2cc(C(=O)Nc3cc4cc(-c5cncc6[nH]ccc56)ccc4cn3)ccn2)CC1 [Compound 131, N-(6-(1H-Pyrrolo[2,3-c]pyridin-4-yl)isoquinolin-3-yl)-2-(4-methylpiperazin-1-yl)isonicotinamide] | 0.003 | > 10 | 0.235 | 0.285 | 0.604 |  | 2.9 |  |  |  |  |  |
| Cc1cc2cc(-c3ccc4cnc(NC(=O)c5ccnc(N6CCN(C)CC6)c5)cc4c3)cnc2[nH]1 [Compound 133, N-(6-(2-Methyl-1H-pyrrolo[2,3-b]pyridin-5-yl)isoquinolin-3-yl)-2-(4-methylpiperazin-1-yl)isonicotinamide] | 0.057 | > 10 | 4.08 | 3.74 | 4.03 |  | 3.28 |  |  |  |  |  |
| Cc1c[nH]c2ncc(-c3ccc4cnc(NC(=O)c5ccnc(N6CCN(C)CC6)c5)cc4c3)cc12 [Compound 134, N-(6-(3-Methyl-1H-pyrrolo[2,3-b]pyridin-5-yl)isoquinolin-3-yl)-2-(4-methylpiperazin-1-yl)isonicotinamide] | 0.054 | > 10 | 6.21 | 3.93 | 2.75 |  | 8.81 |  |  |  |  |  |
| CN1CCN(c2cc(C(=O)Nc3cc4cc(-c5cnc6[nH]ccc6n5)ccc4cn3)ccn2)CC1 [Compound 136, N-(6-(5H-Pyrrolo[2,3-b]pyrazin-2-yl)isoquinolin-3-yl)-2-(4-methylpiperazin-1-yl)isonicotinamide] | 0.038 | > 10 | 1.73 | 1.25 | 0.933 |  | 9.06 |  |  |  |  |  |
| CN1CCN(c2cc(C(=O)Nc3cc4cc(-c5cnc6cc[nH]c6n5)ccc4cn3)ccn2)CC1 [Compound 137, N-(6-(5H-Pyrrolo[2,3-b]pyrazin-3-yl)isoquinolin-3-yl)-2-(4-methylpiperazin-1-yl)isonicotinamide] | 0.027 | > 10 | > 10 | 1.22 | > 10 | 34.2 | > 10 | 3.9 | 19.8 |  |  |  |
| CC(C)n1cc(C(=O)Nc2cc3cc(-c4cncc(NC5CCNCC5)n4)ccc3cn2)cn1 [Compound 138, 1-Isopropyl-N-(6-(6-(piperidin-4-ylamino)pyrazin-2-yl)isoquinolin-3-yl)-1H-pyrazole-4-carboxamide] | 0.002 | > 10 | 0.039 | 0.071 | 0.078 |  | 2.76 |  |  |  |  |  |
| CC(C)n1cc(C(=O)Nc2cc3cc(-c4cncc(NC5CCN(C)CC5)n4)ccc3cn2)cn1 [Compound 139, 1-Isopropyl-N-(6-(6-((1-methylpiperidin-4-yl)amino)pyrazin-2-yl)isoquinolin-3-yl)-1H-pyrazole-4-carboxamide] | 0.002 | > 10 | 0.032 | 0.052 | 0.148 |  | 0.361 |  |  |  |  |  |
| O=C(Nc1cc2cc(-c3cccnc3)ccc2cn1)c1coc(C2CCNCC2)n1 [Compound 140, 2-(Piperidin-4-yl)-N-(6-(pyridin-3-yl)isoquinolin-3-yl)oxazole-4-carboxamide] | 1.05 | > 10 | > 10 | 0.724 | 1.68 |  | 3.4 |  | 6.6 |  |  |  |
| O=C(Nc1cc2cc(-c3cncc(F)c3)ccc2cn1)c1coc(C2CCNCC2)n1 [Compound 141, N-(6-(5-Fluoropyridin-3-yl)isoquinolin-3-yl)-2-(piperidin-4-yl)oxazole-4-carboxamide] | 0.306 | > 10 | 4.01 | 5.88 | 1.51 |  | 9 |  |  |  |  |  |
| CN1CCC(c2nc(C(=O)Nc3cc4cc(-c5cccnc5)ccc4cn3)co2)CC1 [Compound 142, 2-(1-Methylpiperidin-4-yl)-N-(6-(pyridin-3-yl)isoquinolin-3-yl)oxazole-4-carboxamide] | 0.689 | > 10 | 3.5 | > 10 | > 10 | 8.8 | > 10 | 7.8 |  | 16.9 |  |  |
| CN1CCC(c2nc(C(=O)Nc3cc4cc(-c5cncc(F)c5)ccc4cn3)co2)CC1 [Compound 143, N-(6-(5-Fluoropyridin-3-yl)isoquinolin-3-yl)-2-(1-methylpiperidin-4-yl) oxazole-4-carboxamide] | 6.8 | > 10 | > 10 | > 10 | 2.44 |  | > 10 | 8.2 | 0.8 | 8 |  |  |
| Nc1cncc(-c2ccc3cnc(NC(=O)c4coc(C5CCNCC5)n4)cc3c2)c1 [Compound 148, N-(6-(5-Aminopyridin-3-yl)isoquinolin-3-yl)-2-(piperidin-4-yl)oxazole-4-carboxamide] | 0.012 | > 10 | 0.266 | 0.441 | 1.19 |  | 1.78 |  |  |  |  |  |
| CC(C)N1CCC(c2nc(C(=O)Nc3cc4cc(-c5cccnc5)ccc4cn3)co2)CC1 [Compound 149, 2-(1-Isopropylpiperidin-4-yl)-N-(6-(pyridin-3-yl)isoquinolin-3-yl)oxazole-4-carboxamide] | 0.102 | > 10 | 7.84 | > 10 | 3.4 |  | 3.79 |  |  | 39 |  |  |
| CC(C)N1CCC(c2nc(C(=O)Nc3cc4cc(-c5cncc(F)c5)ccc4cn3)co2)CC1 [Compound 150, N-(6-(5-Fluoropyridin-3-yl)isoquinolin-3-yl)-2-(1-isopropylpiperidin-4-yl) oxazole-4-carboxamide] |  |  | > 10 | > 10 | > 10 | 42 | > 10 | 10.7 | 15.2 | 10.9 | 1.63 | > 10 |
